Assay results: the supplement of paper PMC11451515

Key:
Conditions in all cases: 48 h
[1] = tested on: SEM cells; assay: AUC of viability dose-response curve (% viability x log10 dose units); higher = less sensitive
Outline: (§1)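 Leukemia cells adapted to each medium were seeded at 500 or 1000 cells/well in 1536-well plates and dosed with library compounds in DMSO at 11 threefold doses from 47 μM to 0.79 nM for 48 h at 37°C. CellTiter-Glo One luminescence was normalised per plate to DMSO and cell-free wells, then fitted with a four-parameter log-logistic model over log10 doses. Area under the curve was taken from this fit by the trapezoidal rule, with curves above full viability scaled and curves failing quality control removed.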

[2] = tested on: P12-Ichikawa; assay: as above
Outline: as §1

[3] = tested on: NOMO1; assay: as above
Outline: as §1

[4] = tested on: SEM cells; assay: cell viability relative to DMSO control; higher = less cytotoxic
Outline: (§2)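 Three leukemia lines were tested: NOMO1 and SEM at 500 cells/well and P12-Ichikawa at 1000 cells/well. Each was adapted for at least four passages in each medium and seeded in 5 μl in 1536-well plates, and library compounds in DMSO were pin-dosed from 47 μM to 0.79 nM in 11 threefold steps. After 48 h at 37°C, CellTiter-Glo One luminescence was read. Viability is a percentage relative to DMSO wells on each plate, with cell-free wells as background.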

[5] = tested on: P12-Ichikawa; assay: as above
Outline: as §2

[6] = tested on: NOMO1; assay: as above
Outline: as §2

[7] = RPMI 5 mM glucose + 10% dialyzed FBS
[8] = HPLM + 10% dialyzed FBS, 0.000781 µM
[9] = HPLM + 10% dialyzed FBS, 0.00234 µM
[10] = HPLM + 10% dialyzed FBS, 0.00702 µM
[11] = HPLM + 10% dialyzed FBS, 0.0211 µM
[12] = HPLM + 10% dialyzed FBS, 0.0632 µM
[13] = HPLM + 10% dialyzed FBS, 0.19 µM
[14] = HPLM + 10% dialyzed FBS, 0.569 µM
[15] = HPLM + 10% dialyzed FBS, 1.71 µM
[16] = HPLM + 10% dialyzed FBS, 5.12 µM
[17] = HPLM + 10% dialyzed FBS, 15.4 µM
[18] = HPLM + 10% dialyzed FBS, 46.1 µM
[19] = RPMI 5 mM glucose + 10% FBS, 0.000781 µM
[20] = RPMI 5 mM glucose + 10% FBS, 0.00234 µM
[21] = RPMI 5 mM glucose + 10% FBS, 0.00702 µM
[22] = RPMI 5 mM glucose + 10% FBS, 0.0211 µM
[23] = RPMI 5 mM glucose + 10% FBS, 0.0632 µM
[24] = RPMI 5 mM glucose + 10% FBS, 0.19 µM
[25] = RPMI 5 mM glucose + 10% FBS, 0.569 µM
[26] = RPMI 5 mM glucose + 10% FBS, 1.71 µM
[27] = RPMI 5 mM glucose + 10% FBS, 5.12 µM
[28] = RPMI 5 mM glucose + 10% FBS, 15.4 µM
[29] = RPMI 5 mM glucose + 10% FBS, 46.1 µM
[30] = RPMI 5 mM glucose + 10% dialyzed FBS, 0.000781 µM
[31] = RPMI 5 mM glucose + 10% dialyzed FBS, 0.00234 µM
[32] = RPMI 5 mM glucose + 10% dialyzed FBS, 0.00702 µM
[33] = RPMI 5 mM glucose + 10% dialyzed FBS, 0.0211 µM
[34] = RPMI 5 mM glucose + 10% dialyzed FBS, 0.0632 µM
[35] = RPMI 5 mM glucose + 10% dialyzed FBS, 0.19 µM
[36] = RPMI 5 mM glucose + 10% dialyzed FBS, 0.569 µM
[37] = RPMI 5 mM glucose + 10% dialyzed FBS, 1.71 µM
[38] = RPMI 5 mM glucose + 10% dialyzed FBS, 5.12 µM
[39] = RPMI 5 mM glucose + 10% dialyzed FBS, 15.4 µM
[40] = RPMI 5 mM glucose + 10% dialyzed FBS, 46.1 µM

For `CCC[C@@H](C=O)NC(=O)[C@H](CC(C)C)NC(=O)[C@H](CC(C)C)NC(=O)OCc1ccccc1`, the “AUC of viability dose-response curve” value ([1]; HPLM + 10% dialyzed FBS) was 356, the “AUC of viability dose-response curve” value ([1]; RPMI 5 mM glucose + 10% FBS) was 296 and the “AUC of viability dose-response curve” value [1, 7] was 337. The “AUC of viability dose-response curve” value ([2]; HPLM + 10% dialyzed FBS) was 366, the “AUC of viability dose-response curve” value ([2]; RPMI 5 mM glucose + 10% FBS) was 359 and the “AUC of viability dose-response curve” value [2, 7] was 367. For the same compound, the “AUC of viability dose-response curve” value ([3]; HPLM + 10% dialyzed FBS) was 348, the “AUC of viability dose-response curve” value ([3]; RPMI 5 mM glucose + 10% FBS) was 334 and the “AUC of viability dose-response curve” value [3, 7] was 359. For the same compound, the cell viability [4, 8] was 107%, the cell viability [4, 9] was 111% and the cell viability [4, 10] was 106%. The cell viability [4, 11] was 121%, the cell viability [4, 12] was 124% and the cell viability [4, 13] was 117%. For the same compound, the cell viability [4, 14] was 132%, the cell viability [4, 15] was 92.7% and the cell viability [4, 16] was 8.49%. For the same compound, the cell viability [4, 17] was 8.38%, the cell viability [4, 18] was 6.36% and the cell viability [4, 19] was 105%. The cell viability [4, 20] was 103%, the cell viability [4, 21] was 125% and the cell viability [4, 22] was 111%. For the same compound, the cell viability [4, 23] was 129%, the cell viability [4, 24] was 130% and the cell viability [4, 25] was 55.3%. The cell viability [4, 26] was 8.42%, the cell viability [4, 27] was 8.05% and the cell viability [4, 28] was 8.14%. For the same compound, the cell viability [4, 29] was 6.25%, the cell viability [4, 30] was 97.6% and the cell viability [4, 31] was 101%. It also gave a cell viability [4, 32] of 120%, a cell viability [4, 33] of 116% and a cell viability [4, 34] of 134%. It also gave a cell viability [4, 35] of 119%, a cell viability [4, 36] of 118% and a cell viability [4, 37] of 45.7%. The cell viability [4, 38] was 9.18%, the cell viability [4, 39] was 8.63% and the cell viability [4, 40] was 6.53%. For the same compound, the cell viability [5, 8] was 107%, the cell viability [5, 9] was 108% and the cell viability [5, 10] was 120%. For the same compound, the cell viability [5, 11] was 120%, the cell viability [5, 12] was 117% and the cell viability [5, 13] was 118%. It also gave a cell viability [5, 14] of 132%, a cell viability [5, 15] of 118% and a cell viability [5, 16] of 12.1%. The cell viability [5, 17] was 6.77%, the cell viability [5, 18] was 5.18% and the cell viability [5, 19] was 105%. The cell viability [5, 20] was 116%, the cell viability [5, 21] was 113% and the cell viability [5, 22] was 118%. For the same compound, the cell viability [5, 23] was 122%, the cell viability [5, 24] was 121% and the cell viability [5, 25] was 121%. It also gave a cell viability [5, 26] of 104%, a cell viability [5, 27] of 7.61% and a cell viability [5, 28] of 6.3%. For the same compound, the cell viability [5, 29] was 4.83%, the cell viability [5, 30] was 104% and the cell viability [5, 31] was 115%. For the same compound, the cell viability [5, 32] was 120%, the cell viability [5, 33] was 124% and the cell viability [5, 34] was 124%. The cell viability [5, 35] was 130%, the cell viability [5, 36] was 133% and the cell viability [5, 37] was 133%. For the same compound, the cell viability [5, 38] was 14.7%, the cell viability [5, 39] was 7.12% and the cell viability [5, 40] was 5.01%. For the same compound, the cell viability [6, 8] was 113%, the cell viability [6, 9] was 121% and the cell viability [6, 10] was 121%. The cell viability [6, 11] was 138%, the cell viability [6, 12] was 138% and the cell viability [6, 13] was 139%. The cell viability [6, 14] was 138%, the cell viability [6, 15] was 75.4% and the cell viability [6, 16] was 19.2%. It also gave a cell viability [6, 17] of 7.83%, a cell viability [6, 18] of 5.86% and a cell viability [6, 19] of 101%. The cell viability [6, 20] was 110%, the cell viability [6, 21] was 119% and the cell viability [6, 22] was 135%. For the same compound, the cell viability [6, 23] was 126%, the cell viability [6, 24] was 127% and the cell viability [6, 25] was 127%. It also gave a cell viability [6, 26] of 35.3%, a cell viability [6, 27] of 13.9% and a cell viability [6, 28] of 8.52%. For the same compound, the cell viability [6, 29] was 7.79%, the cell viability [6, 30] was 115% and the cell viability [6, 31] was 130%. It also gave a cell viability [6, 32] of 124%, a cell viability [6, 33] of 131% and a cell viability [6, 34] of 143%. It also gave a cell viability [6, 35] of 143%, a cell viability [6, 36] of 132% and a cell viability [6, 37] of 93.1%. It also gave a cell viability [6, 38] of 32.4%, a cell viability [6, 39] of 9.45% and a cell viability [6, 40] of 7.3%.
